Key:
[1] = tested on: full length and Δ7 SMN2 mRNA; experiment: Endogenous SMN2 mRNA end-point semi-quantitative RT-PCR splicing assay in cultured cells; format: cell-based, human; conditions: Type 1 SMA patient fibroblasts (GM03813), increasing concentrations, 24 hr, FIG. 5
Protocol: The endpoint reverse transcription-PCR splicing assay is used to visualize and quantify the levels of the full length and Δ7 SMN2 mRNA in primary cells and cell lines containing the SMN2 gene treated with a test compound.
GM03813 SMA patient cells (5,000 cells/well) are seeded in 200 μL of cell culture medium (DMEM plus 10% FBS) in 96-well flat-bottom plates and the plate is immediately swirled to ensure proper dispersal of cells, forming an even monolayer of cells. Cells are allowed to attach for at least 4-6 hrs. Test compounds are serially diluted 3.16-fold in 100% DMSO to generate a 7-point concentration curve. A solution of test compound (1 μL, 200× in DMSO) is added to each test well and 1 μL DMSO is added to each control well. The plate is incubated for 24 hrs in a cell culture incubator (37° C., 5% CO2, 100% relative humidity). The cells are then lysed in Cells-To-Ct lysis buffer and the lysate is stored at 80° C.
SMN FL and Δ7 mRNA are identified using the following primers in Table 6. These primers hybridize to a nucleotide sequence in exon 6 (SMN Forward C, SEQ ID NO. 11) (nucleotide 43 to nucleotide 63) and exon 8 (SMN Reverse C, SEQ ID NO. 12) (nucleotide 51 to nucleotide 73) common to human SMN1 and SMN2 mRNA. Since the SMA patient cells used in Example 4 contain only the SMN2 gene, RT-PCR can visualize and quantify only SMN2 full-length and SMN2 Δ7 mRNA.
(§1) To synthesize cDNA, 5 μL of lysate, 4 μL of 5× iScript reaction mix, 1 μL of reverse transcriptase, and 10 μL of water are combined and incubated 5 min at 25° C. followed by 30 min at 42° C., followed by 5 min at 85° C. The cDNA solution is stored at −20° C.
To perform endpoint PCR, 5 μL of cDNA, 0.2 μL of 100 μM forward primer, 0.2 μL of 100 μM reverse primer, and 22.5 μL of polymerase super mix are combined in a 96 well semiskirted PCR plate. PCR is carried out at the following temperatures for the indicated time: Step 1: 94° C. (2 min), Step 2: 94° C. (30 sec), Step 3: 55° C. (30 sec), Step 4: 68° C. (1 min), then repeat Steps 2 to 4 for a total of 33 cycles, then hold at 4° C.
10 μL of each PCR sample is electrophoretically separated on a 2% agarose E-gel for 14 minutes stained with double-stranded DNA (dsDNA) staining reagents (e.g., ethidium bromide) and visualized using a gel imager.

[2] = tested on: human SMN1 minigene full length and Δ7 mRNA; experiment: Human SMN1 minigene mRNA end-point semi-quantitative RT-PCR splicing assay in cultured cells; format: cell-based; conditions: HEK293H cells transfected with SMN1-A minigene, increasing concentrations, 7 hours, FIG. 17
Source text: The RT-PCR assay is used to visualize and quantify the levels of the human SMN1 minigene full length and Δ7 mRNA in primary cells and cell lines expressing the human SMN1 minigene construct treated with a test compound.
Using the procedure for the preparation of the SMN2 minigene construct described in Biological Example 1, the SMN1 version of the minigene is generated by changing the sixth nucleotide of exon 7 (a thymine residue) of the SMN2-A minigene construct to cytosine using site directed mutagenesis. Thus, similar to the SMN2-A minigene construct, the SMN1 minigene construct has a single adenine residue inserted after nucleic residue 48 of exon 7. The SMN1 minigene construct is referred to as SMN1-A.
HEK293H cells (10,000 cells/well/199 μL) were transfected, using FuGENE-6 reagent, in a 96-well plate with 15 ng of the SMN1-A minigene reporter plasmid per well. Cells were incubated for 24 hours following transfection. Test compounds were serially diluted 3.16-fold in 100% DMSO to generate a 7-point concentration curve. A solution of test compound (1 μL, 200× in DMSO) was added to each test well. 1 μL DMSO was added to each control well. The plate was incubated for 7 hours in a cell culture incubator (37° C., 5% CO2, 100% relative humidity). The cells were then lysed in Cells-To-Ct lysis buffer and the lysates were stored at 80° C.
Two SMN spliced mRNA are generated from the SMN1 minigene. The term “SMN1 minigene FL” refers to the first spliced product containing exon 7, corresponding to full length SMN1 mRNA. The term “SMN1 minigene A7” refers to the second product lacking exon 7.
SMN minigene FL and Δ7 mRNA are amplified using the primers in Table 11. Primer SMN Forward C (SEQ ID NO. 11) hybridizes to a nucleotide sequence in exon 6 (nucleotide 43 to nucleotide 63), primer SMN Reverse A (SEQ ID NO. 2) hybridizes to a nucleotide sequence in the coding sequence of Firefly luciferase. The combination of these two oligonucleotides detects only SMN1 or SMN2 minigenes (RT-PCR) and will not detect endogenous SMN1 or SMN2 genes. Since the SMA patient cells used in Example 16 were transfected with only the human SMN1 minigene, RT-PCR can visualize and quantify only SMN1 minigene full-length and SMN1 minigene Δ7 mRNA.
as §1
To perform endpoint PCR, 5 μL of cDNA, 0.2 μL of 100 μM forward primer, 0.2 μL of 100 μM reverse primer, and 22.5 μL of polymerase super mix are combined in a 96 well semiskirted PCR plate. PCR is carried out at the following temperatures for the indicated time: Step 1: 94° C. (2 min), Step 2: 94° C. […]

[3] = tested on: Smn protein; experiment: Smn protein assay in human motor neurons; format: cell-based; conditions: human motor neurons derived from SMA iPS cells, 72 hours, increasing concentrations, FIG. 10
Protocol: Smn immunofluorescent confocal microscopy is used to quantify the level of Smn protein in human motor neurons treated with test compounds.
Human motor neurons derived from SMA iPS cells (Ebert et al., Nature, 2009, […]; and, Rubin et al., BMC Biology, 2011, 9:42) are treated with test compound at various concentrations for 72 hours. The level of Smn protein in the cell nucleus is quantified using Smn immunostaining and confocal fluorescence microscopy essentially as described in Makhortova et al., Nature Chemical Biology, 2011, 7:544. The level of Smn protein in compound-treated samples is normalized to that in vehicle-treated samples and plotted as a function of the compound concentration.

| SMILES | SMN2 FL mRNA (gel band) [1] | SMN2 Δ7 mRNA (gel band) [1] | SMN1 minigene FL mRNA (gel band) [2] | SMN1 minigene Δ7 mRNA (gel band) [2] | Smn protein in the nucleus [3] |
| --- | --- | --- | --- | --- | --- |
| Cc1cn2cc(-c3cc4ccc(N5CCN(C)CC5)cc4c(=O)o3)nc2c(C)n1 [Cpd 65, 3-(6,8-dimethylimidazo[1,2-a]pyrazin-2-yl)-7-(4-methylpiperazin-1-yl)-1H-isochromen-1-one] | progressively more SMN2 FL mRNA | less SMN2 Δ7 mRNA | progressively more SMN1 minigene FL mRNA | less SMN1 minigene Δ7 mRNA | progressively more Smn protein in the nucleus |
| Cc1cn2cc(-c3cc4ccc(N5CCN6CCC[C@H]6C5)cc4c(=O)o3)nc2c(C)n1 [Cpd 69, 3-(6,8-dimethylimidazo[1,2-a]pyrazin-2-yl)-7-[(8aS)-hexahydropyrrolo[1,2-a]pyrazin-2(1H)-yl]-1H-isochromen-1-one] | progressively more SMN2 FL mRNA | less SMN2 Δ7 mRNA | progressively more SMN1 minigene FL mRNA | less SMN1 minigene Δ7 mRNA | progressively more Smn protein in the nucleus |
